# How the values were obtained:
# [1] = molecular target: proteinase K (Parengyodontium album, UniProt P06873); experiment: HPLC-based proteolysis assay with proteinase K; format: in vitro ADME
# [2] = variable temperature CD, 50 μM protein, 20 mM sodium phosphate buffer, pH 7
# Chain of proteinase K (P06873 106-384, species assumed): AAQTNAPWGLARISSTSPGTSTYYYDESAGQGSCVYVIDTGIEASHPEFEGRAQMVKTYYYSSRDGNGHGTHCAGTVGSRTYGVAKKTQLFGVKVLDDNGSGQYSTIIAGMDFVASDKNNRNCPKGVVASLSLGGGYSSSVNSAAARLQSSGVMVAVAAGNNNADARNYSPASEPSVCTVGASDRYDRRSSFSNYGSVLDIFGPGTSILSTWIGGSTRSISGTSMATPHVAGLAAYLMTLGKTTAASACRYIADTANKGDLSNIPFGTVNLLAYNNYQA
Structure (SMILES),"k, apparent proteolysis rate constant [1]",Tm (melting temperature) [2]
CC[C@H](C)[C@H](NC(=O)[C@H](Cc1c[nH]cn1)NC(=O)[C@H](CC(N)=O)NC(=O)[C@H](Cc1ccccc1)NC(=O)[C@H](Cc1ccc(O)cc1)NC(=O)[C@H](Cc1ccc(O)cc1)NC(=O)[C@@H](NC(=O)[C@H](CCCNC(=N)N)NC(=O)CNC(=O)[C@H](CO)NC(=O)[C@H](CCC(N)=O)NC(=O)[C@H](CCCNC(=N)N)NC(=O)[C@H](CO)NC(=O)[C@H](CCSC)NC(=O)[C@H](CCCNC(=N)N)NC(=O)[C@H](CCCCN)NC(=O)[C@H](CCC(=O)O)NC(=O)[C@H](Cc1c[nH]c2ccccc12)NC(=O)CNC(=O)[C@@H]1CCCN1C(=O)[C@@H]1CCCN1C(=O)[C@H](CC(C)C)NC(=O)[C@@H](N)CCCCN)C(C)C)C(=O)N[C@H](C(=O)N[C@@H](CC(N)=O)C(=O)N[C@@H](C)C(=O)N[C@@H](CO)C(=O)N[C@@H](CCC(N)=O)C(=O)N[C@@H](Cc1ccccc1)C(=O)N[C@@H](CCC(=O)O)C(=O)N[C@@H](CCCNC(=N)N)C(=O)N1CCC[C@H]1C(=O)N[C@@H](CO)C(=O)NCC(=O)O)[C@@H](C)O [18Q],7.8 ±0.4 s^−1 × 10^3,58.5 ±0.2 °C
CC[C@H](C)[C@H](NC(=O)[C@H](Cc1c[nH]cn1)NC(=O)[C@H](CC(N)=O)NC(=O)[C@H](Cc1ccccc1)NC(=O)[C@H](Cc1ccc(O)cc1)NC(=O)[C@H](Cc1ccc(O)cc1)NC(=O)[C@@H](NC(=O)[C@H](CCCNC(=N)N)NC(=O)CNC(=O)[C@H](CO)NC(=O)[C@H](CO)NC(=O)[C@H](CCCNC(=N)N)NC(=O)[C@H](CO)NC(=O)[C@H](CCSC)NC(=O)[C@H](CCCNC(=N)N)NC(=O)[C@H](CCCCN)NC(=O)[C@H](CCC(=O)O)NC(=O)[C@H](Cc1c[nH]c2ccccc12)NC(=O)CNC(=O)[C@@H]1CCCN1C(=O)[C@@H]1CCCN1C(=O)[C@H](CC(C)C)NC(=O)[C@@H](N)CCCCN)C(C)C)C(=O)N[C@@H](CCC(N)=O)C(=O)N[C@@H](CC(N)=O)C(=O)N[C@@H](C)C(=O)N[C@@H](CO)C(=O)N[C@@H](CCC(N)=O)C(=O)N[C@@H](Cc1ccccc1)C(=O)N[C@@H](CCC(=O)O)C(=O)N[C@@H](CCCNC(=N)N)C(=O)N1CCC[C@H]1C(=O)N[C@@H](CO)C(=O)NCC(=O)O [29Q],47.2 ±2.6 s^−1 × 10^3,45.3 ±0.5 °C
